Tests used:
Assay type in all cases: cell-based, mouse
APMAP^KO Ramos cells = test: Time-lapse phagocytosis assay, uptake of pHrodo-labeled APMAP^KO Ramos cells by J774 macrophages with anti-CD20 antibodies and GPR84 agonists; settings: at high concentrations of agonist, anti-CD20 antibodies (FIG. 12C)
Description: (§1) Time-lapse microscopy assay for phagocytosis J774 cells were lifted by scraping, counted, and plated in 24 well tissue culture plates at a density of 100,000 cells per well in 0.5 ml media 48 h prior to the start of the experiment. At 24 h after plating, media was aspirated and replaced with fresh media containing 10 ng ml^−1 lipopolysaccharide (LPS) (Sigma). On the day of the experiment, target cells that had been transduced with sgRNAs, co-expressed with GFP and PuroR, and selected with puromycin as described above, were lifted, pelleted, and counted. Cells were washed three times in dPBS, incubated in dPBS containing 6.6 ng ml-1 pHrodo-Red succinimidyl ester (Thermo Fisher) at a cell concentration of 1M ml^−1 for 30 minutes, washed once, and resuspended in DMEM supplemented with 2 mM glutamine, 100 units ml^−1 penicillin, […] streptomycin and 10% heat-inactivated FCS, and containing anti-CD20, anti-CD30, and/or anti-CD47 antibodies, as indicated, at a cell concentration of 1M ml^−1. 220 μl of cell suspensions was added to each well. Plates were transferred to an incubator and imaged every 30 or 60 minutes using an Incucyte (Essen). Total red intensity for each well, averaged over 16 images per well, was calculated after applying a threshold for red intensity that excluded most or all cells at the first time point using top-hat background subtraction. Reported values represent the mean total red fluorescence intensity at each timepoint, minus the total red fluorescence at the initial timepoint (to remove signal from occasional autofluorescent debris), normalized to the initial total green fluorescence signal (to account for small variations in target cell density), of duplicate, triplicate, or quadruplicate wells, as indicated in the legend. […]

Safe^KO Ramos cells = test: Time-lapse phagocytosis assay, uptake of pHrodo-labeled Safe^KO Ramos cells by J774 macrophages with anti-CD20 antibodies and GPR84 agonists; settings: anti-CD20 antibodies, GPR84 agonist added (FIG. 4D)
Description: as §1

[1] = tested on: Ramos Burkitt lymphoma cells; test: ADCP of Ramos Burkitt lymphoma cells by LPS-activated J774 macrophages; settings: in the presence of LPS-activated J774 macrophages
Description: For the screens, cells were split into two conditions, each in duplicate: an untreated control group and ADCP treated group. In the ADCP group, for each round of treatment, Ramos cells were incubated with J774 macrophages, which had been seeded into 15 cm plates 48 h prior (at 5 M cells per plate) and treated with LPS (10 ng ml^−1) starting 24 h prior, in the presence of anti-CD20 antibodies (50 ng ml^−1) (CRISPRko screen) or both anti-CD20 antibodies (50 ng ml^−1) and anti-CD47 antibodies (100 ng ml-1) (CRISPRa screen). 25 M Ramos cells were added to each plate and incubated with J774 macrophages for 24 h, and were then removed from the macrophage-containing plates via two rounds of washing with complete RPMI media. Ramos cells were then allowed to recover in T-150 flasks for 24-72 h before the next round of treatment. At the end of the screen, 300 million cells were recovered from each condition and pelleted by centrifugation. […] The sgRNA sequences were amplified and sequenced using an Illumina NextSeq with ˜40 million reads per condition; ˜200× coverage per library element). […]
To establish a scalable platform for genetic screening for regulators of ADCP, conditions for antibody-stimulated uptake of cancer cells by macrophage cell lines were optimized, which, unlike primary macrophages, can readily be cultured at the ultra-high scales necessary for screening. […]

## CCCCCCCCCC(=O)O [capric acid]
APMAP^KO Ramos cells
  uptake of APMAP^KO cells: inhibited
Safe^KO Ramos cells
  antibody-dependent phagocytosis of Safe^KO cells: stimulated

## CCCCCCSc1nc(O)cc(=O)[nH]1 [ZQ-16]
APMAP^KO Ramos cells
  uptake of APMAP^KO cells: inhibited
Safe^KO Ramos cells
  antibody-dependent phagocytosis of Safe^KO cells: stimulated

## CCCCCCCCNc1cc(=O)[nH]c(=O)[nH]1 [6-OAU, (octylamino) pyrimidine-2,4(1H,3H)-dione]
APMAP^KO Ramos cells
  uptake of APMAP^KO cells: inhibited
Safe^KO Ramos cells
  antibody-dependent phagocytosis of Safe^KO cells: stimulated

## rituximab-biosimilar anti-CD20 antibodies: rituximab-biosimilar anti-CD20 antibodies used to drive ADCP
[1]
  phagocytosis of Ramos cells: high rates of phagocytosis

From patent US20240052028A1, “ENHANCEMENT OF ANTI-TUMOR PHAGOCYTOSIS” (The Board of Trustees of the Leland Stanford Junior …, priority 2020, published 2024)
